Active and inactive are the calls of the source.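 The calls were made as follows: active = compounds whose fitted half-maximal concentration in the cell-protection dose series is at or below a set limit; inactive = the rest.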

This test relates to H9c2 cardiomyocytes, 2-deoxyglucose stress, ATP luminescence, 2 h. Nature of the test: H9c2 cell survival under 2-deoxyglucose stress – uHTS hits, dose response (AID 588780).
Broadly, the IC50 is the concentration that inhibits the measured activity by half. Turning to `COc1ccc(N/C=C(\C#N)c2nc3ccccc3n2C)c(OC)c1`, the IC50 was > 79 µM (inactive). Regarding `COc1cc(/C=N\NC(=O)c2cccnc2)ccc1OC(=O)c1ccccc1Cl`, the IC50 is > 79 µM (inactive). As for `Cc1cc2ccccc2c(=O)[nH]1`, the figure is 7.23 µM; as for `COC(=O)c1cc(NC(=O)Nc2cc(OC)ccc2OC)cc(C(=O)OC)c1`, 38.4 µM (inactive). As for `CCN1C(=O)[C@H]2[C@@H](c3ccc(-c4ccc(C(C)=O)cc4)cc3)N[C@@](C)(C(=O)OC)[C@H]2C1=O`, the figure is > 79 µM (inactive); as for `CCn1c(O)c(/C=N/N=C/c2ccccc2)c2ccc(C3=NNC(=O)CC3)cc21`, > 79 µM (inactive); as for `CCC(=O)N1CCN(c2ccccc2NC(=O)COc2cc(C)ccc2C(C)C)CC1`, 11.5 µM. As for `CCOc1ccc(N(CC(=O)N/N=C/c2ccccn2)S(=O)(=O)c2ccc(Cl)cc2)cc1`, the figure is > 79 µM (inactive). As for `Cc1cccc(OCCn2c(NC(=O)c3ccco3)nc3ccccc32)c1`, the IC50 was 17.8 µM. For the compound `CCN(CC)S(=O)(=O)c1ccc(Nc2nc3ccccc3n3nnnc23)cc1`, the IC50 is > 79 µM (inactive). The figure for `CCOC(=O)c1c(C)[nH]c(O)c1C=Nc1ccc(Cl)cc1` is > 79 µM (inactive); for `CCOc1ccc(C(=O)Nc2cccc(-c3nc4cccnc4o3)c2)cc1Cl` it is 32.2 µM (inactive). As to `Cc1[nH]c2ccccc2c1C(=O)CSc1nc2ccccc2[nH]1`, the IC50 was > 79 µM (inactive). `CCCCc1cc(=O)oc2cc(O)ccc12`: the IC50 was > 79 µM (inactive). With `O=C1c2ccccc2NC(c2ccc(-c3cccc([N+](=O)[O-])c3)o2)N1O` (stereo not given), the IC50 was 28.4 µM. As for `N#Cc1ccc(OCC(=O)Nc2nc(-c3ccccn3)cs2)cc1`, the figure is > 79 µM (inactive). As for `Nc1nc(-c2c[nH]c3ccccc23)cs1`, the figure is > 79 µM (inactive); as for `COc1ccc(-c2nnc(-c3cc(OC)c(OC)c(OC)c3)o2)cc1OC`, 14.6 µM. `CCC1(CC)NC(=O)N(CC(=O)OCC(=O)Nc2ccccc2[N+](=O)[O-])C1=O`: the IC50 was > 79 µM (inactive). As for `COc1cc(/C=C/C(=O)OCC(=O)N2c3ccccc3NC(=O)C2(C)C)cc(OC)c1OC`, the figure is > 79 µM (inactive).

For `CCOC(=O)C1CCCN(C(=O)CCC(=O)Nc2ccc3nc(N4CCOCC4)cc(C)c3c2)C1` (stereo not given), the IC50 was 11 µM. The figure for `Cn1c(C(=O)NCCc2ccsc2)cc2c(=O)n(C)c3ccccc3c21` is > 79 µM (inactive). As to `O=C(COC(=O)CCc1nc2ccccc2c(=O)[nH]1)NCc1ccc(F)cc1`, the IC50 is > 79 µM (inactive).

Consider `COc1cc(/C=N/n2nnnc2Nc2ccccc2)cc(OC)c1OC`, for which the IC50 was 26.8 µM. As for `CCC(=O)N1CCN(c2ccc(NC(=O)c3cc4ccccc4o3)cc2Cl)CC1`, the figure is > 79 µM (inactive); as for `O=C1N[C@H]2CC=C[C@H]2Nc2ccccc21`, > 79 µM (inactive).

With `O=c1[nH]c2c(c3c1CCCC3)CCCC2`, the IC50 is > 79 µM (inactive). The figure for `CC(=O)Nc1cccc(-c2cc(NC(C)=O)c3ncc(-c4ccccc4)n3c2)c1` is 12.8 µM; for `CCN(C[C@H]1N[C@@](Cc2ccccc2)(C(=O)OC)[C@H]2C(=O)N(C)C(=O)[C@@H]12)S(=O)(=O)c1ccc(OC)cc1` it is 37.2 µM (inactive); for `Cc1ccccc1N=Cc1cc2c(cc1[N+](=O)[O-])OCO2` it is > 79 µM (inactive).

For the compound `O=C(CCc1nc2ccccc2c(=O)[nH]1)NNC(=O)c1ccc(F)cc1`, the IC50 is > 79 µM (inactive).

Take `Cc1ccc(C)c(S(=O)(=O)N(C(=O)c2ccncc2)c2ccc(OC(=O)c3ccncc3)cc2)c1`: the IC50 is > 79 µM (inactive). The figure for `CCCCn1c(=NC(=O)c2cccnc2)c(C#N)cc2c(=O)n3cccc(C)c3nc21` is 33.6 µM (inactive); for `Cc1sc2nc(SCC(=O)N(C)C)[nH]c(=O)c2c1C` it is > 79 µM (inactive). Turning to `COC(=O)c1cc2c(-c3ccccc3)cc3ccccn3c-2c1C(=O)OC`, the IC50 is 13 µM.

In the case of `Brc1ccc(CSc2ccc3nnc(-c4cccnc4)n3n2)cc1`, the IC50 is > 79 µM (inactive). `O=[N+]([O-])c1ccc(Nc2nc(N/N=C/c3cccc(F)c3)nc(N3CCCC3)n2)cc1`: the IC50 is > 79 µM (inactive). Take `Cc1ccc(-c2n[nH]c(=O)c3ccccc23)cc1S(=O)(=O)NC(C)(C)C`: the IC50 was > 79 µM (inactive). Take `COc1ccc(-c2cc(NC=O)c3ncc(-c4ccc(C(C)=O)cc4)n3c2)cn1`: the IC50 is > 79 µM (inactive). The figure for `O=C(COC(=O)c1cc(-c2cccnc2)nc2ccccc12)Nc1ccc(F)cc1F` is 23.2 µM; for `O=C(CCc1nc2ccccc2c(=O)[nH]1)N1CCN(S(=O)(=O)c2ccc(F)cc2)CC1` it is > 79 µM (inactive); for `CCOC(=O)c1[nH]c2cc(OC)c(OC)cc2c1NC(=O)C(C)N1CCN(Cc2ccccc2)CC1` (stereo not given) it is > 79 µM (inactive). As for `Cc1nn(-c2ccccc2)c(N2CCCC2)c1/C=N/NC(=O)c1cc(-c2ccccn2)nc2ccccc12`, the figure is > 79 µM (inactive); as for `COc1cc(/C=C/C(=O)Nc2ccc3nc4n(c(=O)c3c2)CCCC4)cc(OC)c1OC`, 24.2 µM.

For the compound `Nc1ccc2c(c1)[nH]c(=O)c1ccccc12`, the IC50 was > 79 µM (inactive). As for `CC1Cc2ccccc2N1C(=O)Cn1nc(C(=O)O)c2ccccc2c1=O` (stereo not given), the figure is > 79 µM (inactive); as for `CC(=O)c1c(C)n(-c2cccc(Cl)c2)c2ccc(O)cc12`, 16.8 µM.

With `COCCOC(=O)N/C=C\c1nc2ccccc2c(=O)[nH]1`, the half-inhibitory concentration (IC50) was 26.7 µM. In the case of `CCOC(=O)c1c(C)[nH]c(C)c1C(=O)COc1ncnc2cc([N+](=O)[O-])ccc12`, the 50% inhibitory concentration (IC50) was 14.6 µM. `COc1ccc(-c2cc(-c3ccc(O)cc3)nc(N)c2C#N)cc1OC`: the IC50 was > 79 µM (inactive).

As to `CC(C)[C@H](NC(=O)c1ccccc1Cl)C(=O)Nc1nc(-c2ccccn2)cs1`, the IC50 was > 79 µM (inactive).

For the compound `CNC(=O)c1cccc(NC(=O)c2cc(-c3ccccc3)nc3c2cnn3C(C)C)c1`, the IC50 is > 79 µM (inactive).

Take `Oc1ccc2oc3c(c2c1C=NCc1ccncc1)CCCC3`: the IC50 was > 79 µM (inactive).

`O=S(=O)(c1cccc(F)c1)N1CCN(c2nc(-c3cccnc3)nc3ccccc23)CC1`: the 50% inhibitory concentration (IC50) was 16.1 µM. As for `COc1ccccc1N1CCN(C(=O)c2ccc3nc(-c4ccco4)c(-c4ccco4)nc3c2)CC1`, the 50% inhibitory concentration (IC50) is 17.6 µM. For the compound `C=C1C(C)C2C(Cc3ccccc3)NC(=O)C23OC(=O)/C=C/C(O)CCCC(C)C/C=C/C3C1O` (stereo not given), the IC50 was > 79 µM (inactive). As for `COc1cccc(N2CC(C(=O)NCc3n[nH]c(=O)c4ccccc34)CC2=O)c1` (stereo not given), the figure is > 79 µM (inactive); as for `O=C(Nc1nc(-c2ccccn2)cs1)c1cccc(-n2cnnn2)c1`, > 79 µM (inactive).

Turning to `O=C(CCn1c(=O)oc2ccccc21)N(Cc1ccccc1)c1ccccc1`, the IC50 is > 79 µM (inactive).

Regarding `COc1cccc(OC)c1C(=O)Nc1cc(C)nn1-c1nc2ccccc2[nH]1`, the IC50 was > 79 µM (inactive). Consider `CC1CCN(C(=O)COC(=O)c2n[nH]c(=O)c3ccccc23)CC1`, for which the IC50 was 47.8 µM (inactive). On to `Cc1cc(Br)cc(C=Nc2ccc(N3CCOCC3)cc2)c1O`, for which the IC50 was 58.4 µM (inactive). The figure for `CC(NC(=O)c1cc2c(=O)n(C)c3ccccc3c2n1C)c1ccc2c(c1)OCCO2` (stereo not given) is 30.5 µM (inactive).

Take `CCOC(=O)c1c(NC(=O)COC(=O)c2ccc(O)cc2)sc(C(=O)N(C)C)c1C`: the IC50 is > 79 µM (inactive). As for `COc1ccc(C=CC(=O)c2ccc3cc(OC)c(OC)cc3c2)cc1OC`, the figure is > 79 µM (inactive); as for `CCCCc1nc2sc3c(c2c(=O)[nH]1)CCC3`, > 79 µM (inactive); as for `Cc1ccc(OCC(=O)NCc2n[nH]c(=O)c3ccccc23)cc1`, > 79 µM (inactive). For `COc1ccc(-c2cc(C(F)(F)F)n3nc(C(=O)N4CCN(C(=O)c5ccco5)CC4)cc3n2)cc1`, the IC50 was > 79 µM (inactive). The figure for `CCOc1ccc(S(=O)(=O)N(C)CCO)cc1-c1nc2c(C(C)(C)C)nn(C)c2c(=O)[nH]1` is 26.9 µM. As for `O=C(COC(=O)c1ccc([N+](=O)[O-])s1)Nc1ccc(Cl)cn1`, the IC50 is > 79 µM (inactive). Consider `S=C(Nc1ccc(N2CCOCC2)cc1)Nc1ccc2nc(-c3ccco3)c(-c3ccco3)nc2c1`, for which the IC50 was > 79 µM (inactive). As for `COc1cccc(-c2cnc3c(NC=O)cc(-c4ccc(O)c(OC)c4)cn23)c1`, the IC50 was > 79 µM (inactive).

As for `COc1ccnc(Oc2ccccc2)c1C(=O)N/C=N/OCc1ccc(F)cc1Cl`, the IC50 was > 79 µM (inactive). For the compound `Cc1ccc2c(c1)nc1c3ccccc3nc(-c3ccccc3N)n21`, the IC50 is > 79 µM (inactive).

Turning to `COc1ccc(C(=O)O/N=C(/c2ccccc2)c2ccncc2)cc1OC`, the IC50 is > 79 µM (inactive). On to `COC(=O)c1[nH]c2c(c1C)C(=O)CC(c1cc(OC)ccc1OC)C2` (stereo not given), for which the IC50 is > 79 µM (inactive). The figure for `O=C(CN1CCN(Cc2ccccc2)CC1)Nc1ccc([N+](=O)[O-])cc1C(=O)Nc1ccccc1F` is 35.6 µM (inactive). As for `CCOC(=O)N1CCN(C(=O)CSc2nc3c(cnn3-c3ccc(C)cc3)c(=O)[nH]2)CC1`, the figure is > 79 µM (inactive).

With `COc1ccc2[nH]c(=O)c(CN(Cc3ccco3)Cc3nnnn3Cc3ccccc3)cc2c1`, the IC50 was > 79 µM (inactive).

With `O=c1oc2ccc3ccccc3c2cc1-c1nnc(-c2ccccc2)o1`, the IC50 was 17.3 µM. `Cc1cc(NC(=O)COC(=O)COc2ccc3c4c(c(=O)oc3c2)CCC4)no1`: the IC50 is > 79 µM (inactive). The figure for `O=C(CSc1nnc(-c2cccnc2)n1Cc1ccco1)c1ccccc1` is > 79 µM (inactive); for `CC1(C)Cc2c(C#N)c(SCc3nc4ccccc4[nH]3)nc(N3CCOCC3)c2CO1` it is > 79 µM (inactive). For `O=C(O)c1nn(CC(=O)N2CCN(c3ccccc3)CC2)c(=O)c2ccccc12`, the IC50 was > 79 µM (inactive). For `O=C(COc1cccc2c1CCNC2=O)Nc1cccc(F)c1`, the IC50 was 28 µM.

(Values after PubChem BioAssay AID588780 (Sanford-Burnham Center for Chemical Genomics, 2011).)
